Test results as given in US20240400591A1 (Jacobio Pharmaceuticals Co., Ltd., priority 2021, published 2024).

Target: T1, His-p53 Y220C (94-294) protein (Homo sapiens, UniProt P04637, Y220C)
T1 construct: His-p53 Y220C (94-294) protein
Assay: In vitro DNA binding assay (HTRF)
Format: biochemical
Settings: % activation normalized to 2 μM Ref-1a high control

Structure (SMILES)	EC50 [nM]
COc1cc(S(C)(=O)=O)ccc1NCC#Cc1sc2c(NC3CCN(C)CC3)ccc(F)c2c1CC(F)(F)F [Example 51, N-(4-fluoro-2-(3-((2-methoxy-4-(methylsulfonyl)phenyl)amino)prop-1-yn-1-yl)-3-(2,2,2-trifluoroethyl)benzo[b]thiophen-7-yl)-1-methylpiperidin-4-amine]	479
CN1CCC(Nc2cccc3c(CC(F)(F)F)c(C#CCNc4cccc5cc[nH]c45)sc23)CC1 [Example 29, N-(3-(7-((1-methylpiperidin-4-yl)amino)-3-(2,2,2-trifluoroethyl)benzo[b]thiophen-2-yl)prop-2-yn-1-yl)-1H-indol-7-amine]	6400
COc1cc(P(C)(C)=O)ccc1NCC#Cc1sc2c(NC3CCN(C)CC3F)cccc2c1-c1cncs1 (stereo not shown) [Example 116, (4-((3-(7-(((Z)-3-fluoro-1-methylpiperidin-4-yl)amino)-3-(thiazol-5-yl)benzo[b]thiophen-2-yl)prop-2-yn-1-yl)amino)-3-methoxyphenyl)dimethylphosphine oxide]	5130
CN1CC[C@H](Nc2cccc3c(CC(F)(F)F)c(C#CCNc4ccc(P(C)(C)=O)cc4OC(F)(F)F)sc23)[C@H](F)C1 [Example 137, (4-((3-(7-(((3R,4S)-3-fluoro-1-methylpiperidin-4-yl)amino)-3-(2,2,2-trifluoroethyl)benzo[b]thiophen-2-yl)prop-2-yn-1-yl)amino)-3-(trifluoromethoxy)phenyl)dimethylphosphine oxide]	78
COCCN1CC[C@@H](Nc2cccc3c(CC(F)(F)F)c(C#CCNc4ccc(P(C)(C)=O)cc4OC)sc23)[C@@H](F)C1 (racemic) [Example 88, (4-((3-(7-(((Z)-3-fluoro-1-(2-methoxyethyl)piperidin-4-yl)amino)-3-(2,2,2-trifluoroethyl)benzo[b]thiophen-2-yl)prop-2-yn-1-yl)amino)-3-methoxyphenyl)dimethylphosphine oxide]	404
COc1cc(P(C)(C)=O)ccc1NCC#Cc1sc2c(N[C@@H]3CCN(C4CC(C)(C)OC(C)(C)C4)C[C@@H]3F)cccc2c1CC(F)(F)F [Example 181, (4-((3-(7-(((3S,4R)-3-fluoro-1-(2,2,6,6-tetramethyltetrahydro-2H-pyran-4-yl)piperidin-4-yl)amino)-3-(2,2,2-trifluoroethyl)benzo[b]thiophen-2-yl)prop-2-yn-1-yl)amino)-3-methoxyphenyl)dimethylphosphine oxide]	96
COc1cc(S(C)(=O)=O)ccc1NCC#Cc1sc2c(NC3CCN(CC(F)(F)F)CC3)cccc2c1CC(F)(F)F [Example 37, N-(2-(3-((2-methoxy-4-(methylsulfonyl)phenyl)amino)prop-1-yn-1-yl)-3-(2,2,2-trifluoroethyl)benzo[b]thiophen-7-yl)-1-(2,2,2-trifluoroethyl)piperidin-4-amine]	3880
COc1cc(P(C)(C)=O)cnc1NCC#Cc1sc2c(N[C@@H]3CCN(C)C[C@@H]3F)cccc2c1CC(F)(F)F [Example 207, (6-((3-(7-(((3S,4R)-3-fluoro-1-methylpiperidin-4-yl)amino)-3-(2,2,2-trifluoroethyl)benzo[b]thiophen-2-yl)prop-2-yn-1-yl)amino)-5-methoxypyridin-3-yl)dimethylphosphine oxide]	126
COc1cc(P(C)(C)=O)ccc1NCC#Cc1sc2c(NCC34CCCN3CCC4)cccc2c1CC(F)(F)F [Example 54, (3-methoxy-4-((3-(7-(((tetrahydro-1H-pyrrolizin-7a(5H)-yl)methyl)amino)-3-(2,2,2-trifluoroethyl)benzo[b]thiophen-2-yl)prop-2-yn-1-yl)amino)phenyl)dimethylphosphine oxide]	224
COc1cc(C(=O)NC2CCN(C)CC2)ccc1NCC#Cc1sc2c(NC3CCN(C)CC3F)cccc2c1CC(F)(F)F (racemic) [Example 47, 4-((3-(7-((3-fluoro-1-methylpiperidin-4-yl)amino)-3-(2,2,2-trifluoroethyl)benzo[b]thiophen-2-yl)prop-2-yn-1-yl)amino)-3-methoxy-N-(1-methylpiperidin-4-yl)benzamide]	20
CN1CCC(Nc2cccc3c(CC(F)(F)F)c(C#CCNc4cccc5c(C6CCNCC6)c[nH]c45)sc23)CC1 [Example 30, N-(3-(7-((1-methylpiperidin-4-yl)amino)-3-(2,2,2-trifluoroethyl)benzo[b]thiophen-2-yl)prop-2-yn-1-yl)-3-(piperidin-4-yl)-1H-indol-7-amine]	452
CNC(=O)c1ccc(NCC#Cc2sc3c(NC4CCN(C)CC4)cccc3c2CC(F)(F)F)c(OC)c1 [Example 8, 3-methoxy-N-methyl-4-((3-(7-((1-methylpiperidin-4-yl)amino)-3-(2,2,2-trifluoroethyl)benzo[b]thiophen-2-yl)prop-2-yn-1-yl)amino)benzamide]	112
CN1CCC(Nc2cccc3c(CC(F)(F)F)c(C#CCNc4ccc(S(C)(=O)=O)cc4OCF)sc23)CC1 [Example 11, N-(2-(3-((2-(fluoromethoxy)-4-(methylsulfonyl)phenyl)amino)prop-1-yn-1-yl)-3-(2,2,2-trifluoroethyl)benzo[b]thiophen-7-yl)-1-methylpiperidin-4-amine]	114
COc1nc(P(C)(C)=O)cnc1NCC#Cc1sc2c(N[C@@H]3CCN(C)C[C@@H]3F)cccc2c1CC(F)(F)F [Example 209, (5-((3-(7-(((3S,4R)-3-fluoro-1-methylpiperidin-4-yl)amino)-3-(2,2,2-trifluoroethyl)benzo[b]thiophen-2-yl)prop-2-yn-1-yl)amino)-6-methoxypyrazin-2-yl)dimethylphosphine oxide]	211
COc1cc(C(=O)N2CCOCC2)ccc1NCC#Cc1sc2c(NC3CCN(C)CC3F)cccc2c1CC(F)(F)F (stereo not shown) [Example 50, (4-((3-(7-(((Z)-3-fluoro-1-methylpiperidin-4-yl)amino)-3-(2,2,2-trifluoroethyl)benzo[b]thiophen-2-yl)prop-2-yn-1-yl)amino)-3-methoxyphenyl)(morpholino)methanone]	86
COc1cc(P(C)(C)=O)ccc1NCC#Cc1sc2c(NC[C@@]34CCCN3C[C@H](F)C4)cccc2c1CC(F)(F)F [Example 70, (4-((3-(7-((((2R,7aS)-2-fluorotetrahydro-1H-pyrrolizin-7a(5H)-yl)methyl)amino)-3-(2,2,2-trifluoroethyl)benzo[b]thiophen-2-yl)prop-2-yn-1-yl)amino)-3-methoxyphenyl)dimethylphosphine oxide]	229
COc1cc(S(N)(=O)=O)ccc1NCC#Cc1sc2c(NC3CCN(C)CC3)cccc2c1CC(F)(F)F [Example 23, 3-methoxy-4-((3-(7-((1-methylpiperidin-4-yl)amino)-3-(2,2,2-trifluoroethyl)benzo[b]thiophen-2-yl)prop-2-yn-1-yl)amino)benzenesulfonamide]	100
COc1cc(S(C)(=O)=O)ccc1NCC#Cc1sc2c(NC3CC4CC3CN4C)cccc2c1CC(F)(F)F (stereo not shown) [Example 27, N-(2-(3-((2-methoxy-4-(methylsulfonyl)phenyl)amino)prop-1-yn-1-yl)-3-(2,2,2-trifluoroethyl)benzo[b]thiophen-7-yl)-2-methyl-2-azabicyclo[2.2.1]heptan-5-amine]	235
COc1cc(S(C)(=O)=O)ccc1NCC#Cc1sc2c(NC3CCNCC3)cccc2c1CC(F)(F)F [Example 38, N-(2-(3-((2-methoxy-4-(methylsulfonyl)phenyl)amino)prop-1-yn-1-yl)-3-(2,2,2-trifluoroethyl)benzo[b]thiophen-7-yl)piperidin-4-amine]	194
CN1CC[C@@H](Nc2cccc3c(CC(F)(F)F)c(C#CCNc4ccc(S(C)(=O)=O)cc4P(C)(C)=O)sc23)[C@@H](F)C1 [Example 171, (2-((3-(7-(((3S,4R)-3-fluoro-1-methylpiperidin-4-yl)amino)-3-(2,2,2-trifluoroethyl)benzo[b]thiophen-2-yl)prop-2-yn-1-yl)amino)-5-(methylsulfonyl)phenyl)dimethylphosphine oxide]	178
COc1cc(C(=O)N2CCS(=O)(=O)CC2)ccc1NCC#Cc1sc2c(N[C@H]3CCN(C)C[C@H]3F)cccc2c1CC(F)(F)F (racemic) [Example 48, (1,1-dioxidothiomorpholino)(4-((3-(7-(((3R,4S)-3-fluoro-1-methylpiperidin-4-yl)amino)-3-(2,2,2-trifluoroethyl)benzo[b]thiophen-2-yl)prop-2-yn-1-yl)amino)-3-methoxyphenyl)methanone]	84
C[C@H](C#Cc1sc2c(NC3CCN(C)CC3)cccc2c1CC(F)(F)F)Nc1ccc(S(N)(=O)=O)cc1 [Example 44, (R)-4-((4-(7-((1-methylpiperidin-4-yl)amino)-3-(2,2,2-trifluoroethyl)benzo[b]thiophen-2-yl)but-3-yn-2-yl)amino)benzenesulfonamide]	2910
COc1cc(P(C)(C)=O)ccc1NCC#Cc1sc2c(NC3CCN(C)CC3)ccnc2c1CC(F)(F)F [Example 71, (3-methoxy-4-((3-(7-((1-methylpiperidin-4-yl)amino)-3-(2,2,2-trifluoroethyl)thieno[3,2-b]pyridin-2-yl)prop-2-yn-1-yl)amino)phenyl)dimethylphosphine oxide]	1030
COc1cc(S(C)(=O)=O)c(F)cc1NCC#Cc1sc2c(NC3CCN(C)CC3)cccc2c1CC(F)(F)F [Example 7, N-(2-(3-((5-fluoro-2-methoxy-4-(methylsulfonyl)phenyl)amino)prop-1-yn-1-yl)-3-(2,2,2-trifluoroethyl)benzo[b]thiophen-7-yl)-1-methylpiperidin-4-amine]	200
COc1cc(S(C)(=O)=O)ccc1NCC#Cc1sc2c(N[C@H]3CC[C@H](N4CC5(CCOCC5)C4)CC3)cccc2c1CC(F)(F)F [Example 18, Trans-N-(4-(7-oxa-2-azaspiro[3.5]nonan-2-yl)cyclohexyl)-2-(3-((2-methoxy-4-(methylsulfonyl)phenyl)amino)prop-1-yn-1-yl)-3-(2,2,2-trifluoroethyl)benzo[b]thiophen-7-amine]	173
